Data published in patent US20200277251A1, “NOVEL ANTIBACTERIAL COMPOUNDS AND METHODS OF MAKING AND USING SAME” (BROWN UNIVERSITY, priority 2017, published 2020).
In brackets after ≈: the same amount, converted by molar mass.

Legend:
[1] = tested on: Streptococcus pneumoniae; assay: Resazurin microtiter MIC assay, activity against Streptococcus pneumoniae; type: cell-based
Procedure: (§1) The resazurin microtiter assay procedure described by Palomino and coworkers is used for assessing antimicrobial activity (Palomino, 2002, Antimicrob. Agents Chemother. 46:2720-2722). The assay is performed in LB broth. Resazurin sodium salt powder is prepared in distilled water and filter sterilized at […] (w/v) for MIC assays and at 0.01%8.55). (w/v) for single concentration assays. Compounds are first screened in MIC assays to assess whether growth inhibition is dependent on inhibitor concentration. The plates are incubated for 30 min under aerobic conditions. Growth controls containing no inhibitory compound, sterility controls without inoculation, and controls containing a known antibiotic, chloramphenicol, are also included. The innoculum was prepared from second passage cultures in Nutrient Broth (NB) and standardized to O.D.−600 nm=1.0 and the wells inoculated with a 1:20 dilution. Serial two-fold dilutions of each compound in 100 μL of medium are prepared directly in 96 well plates at concentrations ranging from 250 μM to 7 μM. After incubation 30 μL of resazurin solution is added to each well and incubated for 30 min. A change in color from blue to pink indicates reduction of resazurin, and therefore bacterial growth. Minimum inhibitory concentration (MIC) was determined as the lowest drug concentration that prevented the color change from blue to pink. Inhibition was quantified by observation of color change. Further studies were carried out at a single inhibitor concentration of 250 μM. The plates were incubated for 4 h under aerobic conditions with the same controls. After incubation 30 μL of resazurin solution was added to each well and incubated for 60 min. Inhibition was quantified by fluorescence readings from plate reader SAFIRE, Firmware: V 2.20 08/02 Safire. Excitation wavelength set to 560 nm, emission wavelength set to 590 nm. Well containing dye and non-inoculated cells was used as gain set. Plates are held at 37° C. and fluorescence measurements are taken at 0, 5, 10, 20, 30, and 60 min after addition of dye. Lower fluorescence values correlate to greater degrees of inhibition.

[2] = tested on: E. coli; settings: cited from earlier work
[3] = tested on: Bacillus subtilis; assay: Resazurin microtiter MIC assay, activity against Bacillus subtilis; type: cell-based
Procedure: as §1, with “Bacillus subtilis ATCC 11775 was plated on agar from a 20% glycerol stock solution stored at −80° C. Inoculated plates were then incubated at 37° C. under aerobic conditions for 16 hours. Single cultures were transferred to Nutrient Broth (NB) and cultured for 16 hours under the same conditions. […] Second passage cultures were standardized to O.D.−600 nm=1.0. The resazurin” for “The resazurin”, “of inhibition. Compounds are tested […] for their capacity to inhibit B. subtilis growth. […] Briefly, second-passage bacteria are incubated with inhibitor in a 96-well plate for four hours, then resazurin dye is added and color/fluorescence change is observed. […] Resorufin is also fluorescent and can be measured by a plate-reader.” for “of inhibition.”

Structure (SMILES)	MIC ([1]; 60 uM) [µM]	MIC ([1]; same MIC in mass units) [µg/mL]	MIC [3] [µM]	effect on the viability of E. coli [2]
C#CCN(C(=O)c1ccccc1C(F)(F)F)C(C(=O)NCCCC)C1CCCCC1 (stereo not drawn) [vgba]	50	21.1		
CC1=N[C@@H]2[C@@H](O)[C@H](O)[C@@H](CO)O[C@@H]2S1 [NAG-thiazoline]				no effect
CCCCNC(=O)C(C1CCCCC1)N(C(=O)c1ccccc1OC(C)=O)C1CCCCC1 (stereo not drawn) [ygka]	5	2.33		
CCCCNC(=O)C(C1CCCCC1)N(C(=O)c1ccccc1C)c1ccccc1 (stereo not drawn) [wgqa]	50	20.3		
CCCCNC(=O)C(C1CCCCC1)N(C(=O)c1ccccc1SC)c1ccccc1 (stereo not drawn) [sgqa]	50	21.2		

Continued, in another order:

MIC ([1]; 60 uM) [µM]	MIC ([1]; same MIC in mass units) [µg/mL]	MIC [3] [µM]	Structure (SMILES)	effect on the viability of E. coli [2]
		50 (≈ 20.6 µg/mL)	CCCCNC(=O)C(C1CCCCC1)N(C(=O)c1ccccc1C)C1CCCCC1 (stereo not drawn) [wgka]	
		50 (≈ 21.4 µg/mL)	CCCCNC(=O)C(C1CCCCC1)N(C(=O)c1ccccc1OC)C1CCCCC1 (stereo not drawn) [qgka]	
5	2.46	50 (≈ 24.6 µg/mL)	O=C(NC1CCCCC1)C(C1CCCCC1)N(C(=O)c1ccccc1C(F)(F)F)C1CCCCC1 (stereo not drawn) [vgkc]	
		50 (≈ 23.3 µg/mL)	CCCCNC(=O)C(C1CCCCC1)N(C(=O)c1ccccc1C(F)(F)F)C1CCCCC1 (stereo not drawn) [vgka]	
